The target in one test is Tyk2 (Homo sapiens (Human), UniProt P29597). Briefly: pSTAT4 Cell Assay (MSD, NK92 cells). It counts as cell-based.
Another test addresses JH2 domain of human Tyk2 (Homo sapiens (Human), UniProt P29597). Nature of the test: JH2 Biochemical Assay (TR-FRET probe displacement). It is filed as binding. Background: In TR-FRET formats the signal depends on donor and acceptor labels being close together.
Setting [1] is: TR-FRET probe displacement, JH2 domain of human Tyk2.
Where [2] appears, read: TR-FRET probe displacement, JH2 domain.
The mark [3] stands for this setting: JH2 domain of human Tyk2, TR-FRET probe displacement.

Each structure is given as a SMILES string. pIC50: −log10 of the molar value. Read-outs that look alike come from different tables or passages of the source. A value given as a limit tells only on which side of the number the result lay.

The record followed here is patent US20260028365A1 (BIOGEN MA INC., priority 2022, published 2026).

Chain of Tyk2 (P29597 whole entry, the tested form may be a part): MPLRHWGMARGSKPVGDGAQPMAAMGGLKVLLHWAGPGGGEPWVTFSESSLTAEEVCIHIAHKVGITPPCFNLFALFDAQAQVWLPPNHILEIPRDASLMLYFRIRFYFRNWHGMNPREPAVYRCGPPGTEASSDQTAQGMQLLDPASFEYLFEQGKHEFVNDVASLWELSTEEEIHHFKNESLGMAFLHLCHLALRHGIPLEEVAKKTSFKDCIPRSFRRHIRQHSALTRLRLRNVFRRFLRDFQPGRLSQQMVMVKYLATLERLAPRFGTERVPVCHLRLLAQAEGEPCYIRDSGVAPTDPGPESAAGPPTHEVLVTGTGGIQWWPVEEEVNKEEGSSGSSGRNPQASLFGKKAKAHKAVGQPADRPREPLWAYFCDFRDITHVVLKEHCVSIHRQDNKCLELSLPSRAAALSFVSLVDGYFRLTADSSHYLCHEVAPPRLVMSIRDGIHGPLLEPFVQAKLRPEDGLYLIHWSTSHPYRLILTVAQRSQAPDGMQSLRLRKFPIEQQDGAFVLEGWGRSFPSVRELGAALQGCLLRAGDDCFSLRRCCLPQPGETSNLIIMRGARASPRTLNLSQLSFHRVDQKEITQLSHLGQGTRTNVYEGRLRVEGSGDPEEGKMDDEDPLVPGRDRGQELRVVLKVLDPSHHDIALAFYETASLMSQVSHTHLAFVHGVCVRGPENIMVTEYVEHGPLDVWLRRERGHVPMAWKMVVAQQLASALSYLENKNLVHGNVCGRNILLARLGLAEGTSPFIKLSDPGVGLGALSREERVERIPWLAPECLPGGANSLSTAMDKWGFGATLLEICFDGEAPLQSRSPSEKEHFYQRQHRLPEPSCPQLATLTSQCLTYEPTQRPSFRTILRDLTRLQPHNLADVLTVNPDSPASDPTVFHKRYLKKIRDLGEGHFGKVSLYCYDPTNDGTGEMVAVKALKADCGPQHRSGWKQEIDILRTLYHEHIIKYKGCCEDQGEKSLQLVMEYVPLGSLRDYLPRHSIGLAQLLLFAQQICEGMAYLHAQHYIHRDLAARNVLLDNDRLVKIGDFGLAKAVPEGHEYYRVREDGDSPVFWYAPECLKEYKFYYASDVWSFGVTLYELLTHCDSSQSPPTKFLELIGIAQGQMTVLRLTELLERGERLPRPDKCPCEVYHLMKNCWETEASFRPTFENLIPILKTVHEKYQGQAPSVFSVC
Chain of JH2 domain of human Tyk2 (P29597 575-876): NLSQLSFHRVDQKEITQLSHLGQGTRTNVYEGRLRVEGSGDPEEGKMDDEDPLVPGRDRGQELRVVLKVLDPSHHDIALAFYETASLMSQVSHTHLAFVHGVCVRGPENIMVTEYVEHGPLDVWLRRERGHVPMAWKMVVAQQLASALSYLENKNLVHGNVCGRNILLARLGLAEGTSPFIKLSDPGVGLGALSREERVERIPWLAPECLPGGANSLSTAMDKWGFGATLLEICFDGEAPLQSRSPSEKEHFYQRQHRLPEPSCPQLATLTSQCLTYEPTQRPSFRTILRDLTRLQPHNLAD

The term pIC50 denotes the negative decadic logarithm of the IC50, by convention in mol/L. High values mean a low IC50, low ones a high IC50. Turning to `CC(=O)Nc1cc(Nc2cc(C)nc(C(C)(F)F)n2)c(OC2COC2)cn1` [Example 86, N-(4-((2-(1,1-difluoroethyl)-6-methylpyrimidin-4-yl)amino)-5-(oxetan-3-yloxy)pyridin-2-yl)acetamide], the pIC50 against Tyk2 (MSD) was 7.00 to 8.00; on JH2 domain of human Tyk2 (setting [1]) it was no less than 8.00.
`CC(=O)Nc1cc(Nc2cc(C)nc(C(C)(F)F)n2)c(-c2cnc(CN3CCOCC3)cn2)cn1` [Example 793, N-(4-((2-(1,1-difluoroethyl)-6-methylpyrimidin-4-yl)amino)-5-(5-(morpholinomethyl)pyrazin-2-yl)pyridin-2-yl)acetamide]: the pIC50 on Tyk2 and at JH2 domain of human Tyk2 (setting [2]) was no less than 8.00 each time.
Turning to `CC(=O)Nc1cc(Nc2ccnc(C(C)(F)F)n2)c(-c2ncc(Cl)cn2)cn1` [Example 697, N-(5-(5-chloropyrimidin-2-yl)-4-((2-(1,1-difluoroethyl)pyrimidin-4-yl)amino)pyridin-2-yl)acetamide], the negative-log IC50 (pIC50) was 7.00 to 8.00 on Tyk2 (MSD) and no less than 8.00 on JH2 domain of human Tyk2 (setting [3]).
Taken in the same sequence, the figures for `CC(=O)Nc1cc(Nc2cc(C)nc(C(C)(F)F)n2)c(OC[C@@H]2CCC[C@H](C)O2)cn1` (stereo in doubt) [Example 442, Cis-rac-N-(4-((2-(1,1-difluoroethyl)-6-methylpyrimidin-4-yl)amino)-5-((6-methyltetrahydro-2H-pyran-2-yl)methoxy)pyridin-2-yl)acetamide] were 7.00 to 8.00 and 7.00 to 8.00.
On to `COC1(C)CN(Cc2ccc(-c3cnc(NC(C)=O)cc3Nc3ccnc(C(C)(F)F)n3)nc2)C1` [Example 882, N-(4′-((2-(1,1-difluoroethyl)pyrimidin-4-yl)amino)-5-((3-methoxy-3-methylazetidin-1-yl)methyl)-[2,3′-bipyridin]-6′-yl)acetamide], for which the negative-log IC50 (pIC50) against Tyk2 and on JH2 domain of human Tyk2 (setting [2]) was no less than 8.00 throughout.
As for `CCOc1cc(-c2cnc(NC(C)=O)cc2Nc2cc(C)nc(C(C)(F)F)n2)ncn1` [Example 243, N-(4-((2-(1,1-difluoroethyl)-6-methylpyrimidin-4-yl)amino)-5-(6-ethoxypyrimidin-4-yl)pyridin-2-yl)acetamide], the pIC50 was 7.00 to 8.00 on Tyk2 (MSD) and no less than 8.00 at JH2 domain of human Tyk2 (setting [1]).
As to `CC(=O)Nc1cc(Nc2cc(C)nc(C(C)(F)F)n2)c(-c2ccc(COC(F)F)cn2)cn1` [Example 524, N-(4′-((2-(1,1-difluoroethyl)-6-methylpyrimidin-4-yl)amino)-5-((difluoromethoxy)methyl)-[2,3′-bipyridin]-6′-yl)acetamide], the pIC50 against Tyk2 (MSD) and on JH2 domain of human Tyk2 (setting [3]) was no less than 8.00 each time.
Turning to `CCc1cc(Nc2cc(NC(C)=O)ncc2-c2cnc(OC)cn2)nc(C(C)(F)F)n1` [Example 829, N-(4-((2-(1,1-difluoroethyl)-6-ethylpyrimidin-4-yl)amino)-5-(5-methoxypyrazin-2-yl)pyridin-2-yl)acetamide], the pIC50 against Tyk2 is 7.00 to 8.00; on JH2 domain of human Tyk2 (setting [2]), no less than 8.00.
For the molecule `CC(=O)Nc1cc(Nc2cc(C)nc(C(C)(F)F)n2)c(-c2cc(CN3CCN(C)CC3)n(C)n2)cn1` [Example 804, N-(4-((2-(1,1-difluoroethyl)-6-methylpyrimidin-4-yl)amino)-5-(1-methyl-5-((4-methylpiperazin-1-yl)methyl)-1H-pyrazol-3-yl)pyridin-2-yl)acetamide], the pIC50 against Tyk2 and on JH2 domain of human Tyk2 (setting [2]) was no less than 8.00 throughout.
Consider `COC(C)(C)Cn1ccc(-c2cnc(NC(C)=O)cc2Nc2cc(C)nc(C(C)(F)F)n2)n1` [Example 230, N-(4-((2-(1,1-difluoroethyl)-6-methylpyrimidin-4-yl)amino)-5-(1-(2-methoxy-2-methylpropyl)-1H-pyrazol-3-yl)pyridin-2-yl)acetamide], for which the pIC50 at Tyk2 (MSD) and on JH2 domain of human Tyk2 (setting [1]) was no less than 8.00 each time.
`COc1cc(-c2cnc(NC(C)=O)cc2Nc2ccnc(C(C)(F)F)n2)ncn1` [Example 193, N-(4-((2-(1,1-difluoroethyl)pyrimidin-4-yl)amino)-5-(6-methoxypyrimidin-4-yl)pyridin-2-yl)acetamide]: the pIC50 is 7.00 to 8.00 on Tyk2 (MSD) and no less than 8.00 on JH2 domain of human Tyk2 (setting [1]).
In the case of `COc1nccc(-c2cnc(NC(C)=O)cc2Nc2cccc(C(C)(F)F)n2)n1` [Example 177, N-(4-((6-(1,1-difluoroethyl)pyridin-2-yl)amino)-5-(2-methoxypyrimidin-4-yl)pyridin-2-yl)acetamide], the pIC50 at Tyk2 (MSD) and on JH2 domain of human Tyk2 (setting [1]) was no less than 8.00 throughout.
As to `COCc1cc(-c2cnc(NC(C)=O)cc2Nc2cc(C)nc(C(C)(F)F)n2)ncn1` [Example 665, N-(4-((2-(1,1-difluoroethyl)-6-methylpyrimidin-4-yl)amino)-5-(6-(methoxymethyl)pyrimidin-4-yl)pyridin-2-yl)acetamide], the pIC50 was 7.00 to 8.00 against Tyk2 (MSD) and no less than 8.00 on JH2 domain of human Tyk2 (setting [3]).
Take `COCc1ccc(-c2cnc(NC(C)=O)cc2Nc2cc(C)nc(C3CCOC3)n2)nc1` (centres unmarked) [Example 568, N-(5-(methoxymethyl)-4′-((6-methyl-2-(tetrahydrofuran-3-yl)pyrimidin-4-yl)amino)-[2,3′-bipyridin]-6′-yl)acetamide]: the pIC50 at Tyk2 (MSD) and on JH2 domain of human Tyk2 (setting [3]) was no less than 8.00 each time.
Turning to `CC(=O)Nc1cc(Nc2cc(C)nc(C(C)(F)F)n2)c(-c2nc(CN(C)C)cs2)cn1` [Example 784, N-(4-((2-(1,1-difluoroethyl)-6-methylpyrimidin-4-yl)amino)-5-(4-((dimethylamino)methyl)thiazol-2-yl)pyridin-2-yl)acetamide], the pIC50 on Tyk2 and at JH2 domain of human Tyk2 (setting [2]) was no less than 8.00 in each case.
Regarding `CCOc1cnc(NC(C)=O)cc1Nc1cc(O[C@H]2C[C@@H](OC)C2)cc(C(C)(F)F)n1` [Example 15, N-(4-((6-(1,1-difluoroethyl)-4-((1s,3s)-3-methoxycyclobutoxy)pyridin-2-yl)amino)-5-ethoxypyridin-2-yl)acetamide], the pIC50 at Tyk2 (MSD) is 7.00 to 8.00; at JH2 domain of human Tyk2 (setting [1]), no less than 8.00.
As for `CCc1cc(Nc2cc(NC(C)=O)ncc2O[C@H]2C[C@@H](F)C2)nc(C(C)(F)F)n1` [Example 413, N-(4-((2-(1,1-difluoroethyl)-6-ethylpyrimidin-4-yl)amino)-5-((1s,3s)-3-fluorocyclobutoxy)pyridin-2-yl)acetamide], the pIC50 on Tyk2 (MSD) and on JH2 domain of human Tyk2 (setting [3]) was no less than 8.00 throughout.
For `CC(=O)Nc1cc(Nc2cc(C)nc(C(C)(F)F)n2)c(-c2cc(C(C)C)ncn2)cn1` [Example 245, N-(4-((2-(1,1-difluoroethyl)-6-methylpyrimidin-4-yl)amino)-5-(6-isopropylpyrimidin-4-yl)pyridin-2-yl)acetamide], the negative logarithm of the IC50 (pIC50) is 7.00 to 8.00 against Tyk2 (MSD) and no less than 8.00 on JH2 domain of human Tyk2 (setting [1]).
Turning to `COC1CCN(c2cnc(-c3cnc(NC(C)=O)cc3Nc3ccnc(C(C)(F)F)n3)cn2)C1` (centres unmarked) [Example 867, N-(4-((2-(1,1-difluoroethyl)pyrimidin-4-yl)amino)-5-(5-(3-methoxypyrrolidin-1-yl)pyrazin-2-yl)pyridin-2-yl)acetamide], the values for the pIC50 at Tyk2 and on JH2 domain of human Tyk2 (setting [2]) were 7.00 to 8.00 and no less than 8.00, respectively.
As for `CC(=O)Nc1cc(Nc2cc(C)nc(C(C)(F)F)n2)c(OCc2cnn(C)c2C)cn1` [Example 138, N-(4-((2-(1,1-difluoroethyl)-6-methylpyrimidin-4-yl)amino)-5-((1,5-dimethyl-1H-pyrazol-4-yl)methoxy)pyridin-2-yl)acetamide], the values for the pIC50 against Tyk2 (MSD) and on JH2 domain of human Tyk2 (setting [1]) were no more than 6.00 and 6.00 to 7.00, respectively.
For the molecule `CC(=O)Nc1cc(Nc2ccnc(C(C)(F)F)n2)c(-c2cc(OC(F)F)ncn2)cn1` [Example 767, N-(4-((2-(1,1-difluoroethyl)pyrimidin-4-yl)amino)-5-(6-(difluoromethoxy)pyrimidin-4-yl)pyridin-2-yl)acetamide], the pIC50 at Tyk2 was 7.00 to 8.00; at JH2 domain of human Tyk2 (setting [2]), no less than 8.00.
Consider `COc1cnc(NC(C)=O)cc1Nc1cc(OC2CC(F)(F)C2)nc(C(C)(F)F)n1` [Example 460, N-(4-((6-(3,3-difluorocyclobutoxy)-2-(1,1-difluoroethyl)pyrimidin-4-yl)amino)-5-methoxypyridin-2-yl)acetamide], for which the negative logarithm of the IC50 (pIC50) against Tyk2 (MSD) was 7.00 to 8.00; at JH2 domain of human Tyk2 (setting [3]), no less than 8.00.
As for `CC(=O)Nc1cc(Nc2ccnc(C(C)(F)F)n2)c(-c2nc3c(s2)CCN(C)C3)cn1` [Example 797, N-(4-((2-(1,1-difluoroethyl)pyrimidin-4-yl)amino)-5-(5-methyl-4,5,6,7-tetrahydrothiazolo[4,5-c]pyridin-2-yl)pyridin-2-yl)acetamide], the pIC50 on Tyk2 and on JH2 domain of human Tyk2 (setting [2]) was no less than 8.00 throughout.
`CC(=O)Nc1cc(Nc2cc(C)nc(C(C)(F)F)n2)c(OC2CC2)cn1` [Example 45, N-(5-cyclopropoxy-4-((2-(1,1-difluoroethyl)-6-methylpyrimidin-4-yl)amino)pyridin-2-yl)acetamide]: the pIC50 against Tyk2 (MSD) was 7.00 to 8.00; at JH2 domain of human Tyk2 (setting [1]) it was no less than 8.00.
In the case of `COCCN(C)Cc1ccc(-c2cnc(NC(C)=O)cc2Nc2ccnc(C(C)(F)F)n2)nc1` [Example 879, N-(4′-((2-(1,1-difluoroethyl)pyrimidin-4-yl)amino)-5-(((2-methoxyethyl)(methyl)amino)methyl)-[2,3′-bipyridin]-6′-yl)acetamide], the pIC50 against Tyk2 and on JH2 domain of human Tyk2 (setting [2]) was no less than 8.00 each time.
Take `CC(=O)Nc1cc(Nc2ccnc(C(C)(F)F)n2)c(-c2ncccc2F)cn1` [Example 698, N-(4′-((2-(1,1-difluoroethyl)pyrimidin-4-yl)amino)-3-fluorO[2,3′-bipyridin]-6′-yl)acetamide]: the pIC50 against Tyk2 (MSD) is 6.00 to 7.00; on JH2 domain of human Tyk2 (setting [3]), 7.00 to 8.00.
As to `CC(=O)Nc1cc(Nc2ccnc(C(C)(F)F)n2)c(-c2ccc(N3CC4(CCOC4)C3)nn2)cn1` [Example 877, N-(5-(6-(6-oxa-2-azaspiro[3.4]octan-2-yl)pyridazin-3-yl)-4-((2-(1,1-difluoroethyl)pyrimidin-4-yl)amino)pyridin-2-yl)acetamide], the pIC50 on Tyk2 and at JH2 domain of human Tyk2 (setting [2]) was no less than 8.00 throughout.
For `COCCOc1cnc(NC(C)=O)cc1Nc1nc(C)cc(C(C)(F)F)n1` [Example 78], the pIC50 on Tyk2 (MSD) was 7.00 to 8.00; at JH2 domain of human Tyk2 (setting [1]), no less than 8.00.
